Square brackets hold non-standard residues; d marks the D form. Peptide text beside a SMILES is read from it. * marks the point of attachment. Aoe = N[C@@H](CCCCCC(=O)[C@@H]1CO1)C(=O)O; Cbz = O=C(OCc1ccccc1)*
Columns and labels:
Hsp90-GR complex = experiment: Hsp90-GR co-immunoprecipitation in A549 cells; type: cell-based; conditions: TSA 4 hours or HDAC6 knockdown
Protocol: (§1) Immunoprecipitation and immunostaining. Cells were lysed as described previously (Hubbert et al., 2002). Hsp90 antibody was pre-incubated with rabbit-anti-mouse (Jackson Labs) and Protein-A Sepharose beads (Roche) for 10 minutes. The bead/antibody mix was added to 750 μg of whole cell lysate and incubated at 4° C. for 3 hours. Samples were washed 4 times with 150 mM NETN(Hubbert et al., 2002) and subjected to SDS-PAGE and immunoblotting analysis. Immunolocalization of GR and HDAC6 was described previously (Hubbert et al., 2002).
(§2) Studies were also conducted to identify the molecular basis for the regulation of Hsp90 function via HDAC6-mediated deacetylation. Because the proper folding of GR by Hsp90 depends on the association of Hsp90 with a distinct set of co-chaperones into a chaperone complex (Neckers, 2002; Pratt and Toft, 2003), a determination was made regarding whether Hsp90 acetylation affects Hsp90/co-chaperone assembly. The p23 protein (Johnson and Toft, 1994) is a co-chaperone that stabilizes the Hsp90-GR complex and is critical for GR ligand binding activity in vitro and in vivo (Dittmar et al., 1997; Morishima et al., 2003). Control A549 cells and HDAC6 siRNA knockdown cells (KD) were left untreated or treated for 4 hours with TSA or TPXb. Lysates were immunoprecipitated with α-Hsp90 antibody followed by immunoblotting with α-p23 antibody. […]

Hsp90 = Hsp90 acetylation: α-Hsp90 immunoprecipitation, α-AcK immunoblot, in A549 cells; type: cell-based
Protocol: as §1
HDAC6 regulates Hsp90 acetylation. To investigate the possibility that HDAC6 functions as an Hsp90 deacetylase, a determination was made regarding whether over-expression of HDAC6 can lead to Hsp90 deacetylation in vivo. […] A basal level of Hsp90 acetylation could be detected in control A549 cell lines. […] The reactions were then subjected to SDS-PAGE and immunoblotted with the indicated antibodies).
Hsp90 hyperacetylation is induced by dexamethasone and correlated with the dissociation of functional […]. Experiments were conducted to determine whether Hsp90 acetylation is regulated by dexamethasone. Control and HDAC6 knockdown A549 cells were cultured in hormone free media for 24 hours, and then stimulated with dexamethasone for the indicated time in hours. […]

Hsp90-p23 interactions = experiment: Hsp90-p23 co-immunoprecipitation in A549 cells; type: cell-based; conditions: treated for 4 hours or HDAC6 siRNA knockdown
Protocol: as §1, §2

[1] = target: glucocorticoid receptor (GR), endogenous, of A549 and 293T cells (human) (UniProt P04150); experiment: cell-based or functional assay
p60^HOP and p50^cdc37 = experiment: Rescue of p60HOP and p50cdc37 levels by proteasome inhibition after loss of HDAC6; type: cell-based
Description: Since p60^HOP and p50^cdc37 are critical co-chaperones for Hsp90 function, these observations provide further evidence that HDAC6 is required for full Hsp90 chaperone function.

HDAC members = conditions: cited from earlier work
[2] = target: T1, mouse glucocorticoid receptor (mGR), full length (mouse, UniProt P06537 1-792); experiment: immunoadsorption of mGR from wild-type and HDAC6 knockdown 293T cells, immunoblot for coadsorbed p23 (within the GR.hsp90 complex)
T1 construct: stripped of chaperones with 0.5 M NaCl before reconstitution; also called mouse GR
T1 sequence (looked up): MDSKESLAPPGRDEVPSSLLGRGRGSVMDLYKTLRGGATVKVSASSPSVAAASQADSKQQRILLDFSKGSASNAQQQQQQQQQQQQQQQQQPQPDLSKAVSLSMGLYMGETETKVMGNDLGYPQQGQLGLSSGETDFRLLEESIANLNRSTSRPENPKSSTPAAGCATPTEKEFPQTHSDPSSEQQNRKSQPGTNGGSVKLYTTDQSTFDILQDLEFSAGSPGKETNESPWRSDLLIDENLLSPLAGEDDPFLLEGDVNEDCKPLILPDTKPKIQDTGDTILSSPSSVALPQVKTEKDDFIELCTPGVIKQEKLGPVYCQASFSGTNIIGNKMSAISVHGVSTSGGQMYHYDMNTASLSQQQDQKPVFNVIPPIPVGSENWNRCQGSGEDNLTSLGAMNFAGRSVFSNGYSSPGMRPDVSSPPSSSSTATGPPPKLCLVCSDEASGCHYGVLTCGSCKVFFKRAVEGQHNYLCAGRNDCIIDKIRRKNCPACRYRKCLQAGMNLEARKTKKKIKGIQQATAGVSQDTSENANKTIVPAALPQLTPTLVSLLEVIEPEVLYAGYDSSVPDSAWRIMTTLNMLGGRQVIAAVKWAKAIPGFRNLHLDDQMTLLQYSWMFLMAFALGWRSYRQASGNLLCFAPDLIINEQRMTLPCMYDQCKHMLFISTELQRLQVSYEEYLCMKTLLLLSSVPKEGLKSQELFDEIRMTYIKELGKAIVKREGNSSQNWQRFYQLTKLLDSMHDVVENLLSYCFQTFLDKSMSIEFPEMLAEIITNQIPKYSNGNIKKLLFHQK
Description: Because an immunoadsorbing antibody against the human GR was not available, the mouse GR was transiently expressed in HEK cells.

[3] = target: acetylated (hyperacetylated) Hsp90 from HDAC6 knockdown or TSA-treated cells

## CC(/C=C/C(=O)NO)=C\[C@@H](C)C(=O)c1ccc(N(C)C)cc1 [trichostatin A]
Hsp90-GR complex
  Hsp90 and GR interaction: significantly reduced
Hsp90; A549 cells, treated for 4 hours (TPXb 100 nM) or stably expressing siRNA
  level of acetylated Hsp90: dramatic rise in the level of acetylated Hsp90
Hsp90; HDAC6 knockdown A549 cells, TSA treatment
  Hsp90 acetylation in HDAC6 knockdown cells: little effect on Hsp90 acetylation
Hsp90-p23 interactions
  Hsp90-p23 interactions: disrupted Hsp90-p23 interactions

## acetylated (hyperacetylated) Hsp90 from HDAC6 knockdown or TSA-treated cells
[1]
  GR ligand binding activity ([^3H]dexamethasone bound in 293T cytosol) (fold reduction): 6

## CC(C)C[C@@H](C=O)NC(=O)[C@H](CC(C)C)NC(=O)[C@H](CC(C)C)NC(=O)OCc1ccccc1 [MG132] (Cbz-Leu-Leu-Leu-aldehyde)
p60^HOP and p50^cdc37
  rescue of the reduction of p60^HOP and p50^cdc37: partially rescued

## O=C1N[C@@H](Cc2ccccc2)C(=O)N2CCC[C@@H]2C(=O)N[C@@H](CCCCCC(=O)[C@@H]2CO2)C(=O)N[C@H]1Cc1ccccc1 [TPXb] (cyclo(FF[dP][Aoe]))
HDAC members
  HDAC inhibition profile: a potent inhibitor for all HDAC members except HDAC6
Hsp90-p23 interactions
  Hsp90-p23 interactions: had little effect

B1: p23 protein (Hsp90 co-chaperone), endogenous, of A549 and 293T cells (other, UniProt Q15185 1-160, looked up)
chain: MQPASAKWYDRRDYVFIEFCVEDSKDVNVNFEKSKLTFSCLGGSDNFKHLNEIDLFHCIDPNDSKHKRTDRSILCCLRKGESGQSWPRLTKERAKLNWLSVDFNNWKDWEDDSDEDMSNFDRFSEMMNNMGGDEDVDLPEVDGADDDSQDSDDEKMPDLE
[2]
  binding result: binds

B2: Flag-HDAC6 (FLAG-tagged wild-type HDAC6) (protein)
chain: MTSTGQDSTTTRQRRSRQNPQSPPQDSSVTSKRNIKKGAVPRSIPNLAEVKKKGKMKKLGQAMEEDLIVGLQGMDLNLEAEALAGTGLVLDEQLNEFHCLWDDSFPEGPERLHAIKEQLIQEGLLDRCVSFQARFAEKEELMLVHSLEYIDLMETTQYMNEGELRVLADTYDSVYLHPNSYSCACLASGSVLRLVDAVLGAEIRNGMAIIRPPGHHAQHSLMDGYCMFNHVAVAARYAQQKHRIRRVLIVDWDVHHGQGTQFTFDQDPSVLYFSIHRYEQGRFWPHLKASNWSTTGFGQGQGYTINVPWNQVGMRDADYIAAFLHVLLPVALEFQPQLVLVAAGFDALQGDPKGEMAATPAGFAQLTHLLMGLAGGKLILSLEGGYNLRALAEGVSASLHTLLGDPCPMLESPGAPCRSAQASVSCALEALEPFWEVLVRSTETVERDNMEEDNVEESEEEGPWEPPVLPILTWPVLQSRTGLVYDQNMMNHCNLWDSHHPEVPQRILRIMCRLEELGLAGRCLTLTPRPATEAELLTCHSAEYVGHLRATEKMKTRELHRESSNFDSIYICPSTFACAQLATGAACRLVEAVLSGEVLNGAAVVRPPGHHAEQDAACGFCFFNSVAVAARHAQTISGHALRILIVDWDVHHGNGTQHMFEDDPSVLYVSLHRYDHGTFFPMGDEGASSQIGRAAGTGFTVNVAWNGPRMGDADYLAAWHRLVLPIAYEFNPELVLVSAGFDAARGDPLGGCQVSPEGYAHLTHLLMGLASGRIILILEGGYNLTSISESMAACTRSLLGDPPPLLTLPRPPLSGALASITETIQVHRRYWRSLRVMKVEDREGPSSSKLVTKKAPQPAKPRLAERMTTREKKVLEAGMGKVTSASFGEESTPGQTNSETAVVALTQDQPSEAATGGATLAQTISEAAIGGAMLGQTTSEEAVGGATPDQTTSEETVGGAILDQTTSEDAVGGATLGQTTSEEAVGGATLAQTTSEAAMEGATLDQTTSEEAPGGTELIQTPLASSTDHQTPPTSPVQGTTPQISPSTLIGSLRTLELGSESQGASESQAPGEENLLGEAAGGQDMADSMLMQGSRGLTDQAIFYAVTPLPWCPHLVAVCPIPAAGLDVTQPCGDCGTIQENWVCLSCYQVYCGRYINGHMLQHHGNSGHPLVLSYIDLSAWCYYCQAYVHHQALLDVKNIAHQNKFGEDMPHPH
[3]
  in vitro deacetylation of acetylated Hsp90 (37° C., 60 minutes; α-AcK immunoblot): immuno-purified wild type but not catalytically inactive mutant HDAC6 can efficiently deacetylate acetylated Hsp90 in vitro
  restoration of stable GR.hsp90 heterocomplex assembly activity after incubation with immunopurified FLAG-HDAC6: The stable heterocomplex assembly activity of purified knockdown cell hsp90 is restored to the level of purified wild-type hsp90 by incubation with immunopurified FLAG-HDAC6

B3: Flag-HDAC6-cat-mut (H216/611A, catalytically inactive mutant) (protein)
chain: MTSTGQDSTTTRQRRSRQNPQSPPQDSSVTSKRNIKKGAVPRSIPNLAEVKKKGKMKKLGQAMEEDLIVGLQGMDLNLEAEALAGTGLVLDEQLNEFHCLWDDSFPEGPERLHAIKEQLIQEGLLDRCVSFQARFAEKEELMLVHSLEYIDLMETTQYMNEGELRVLADTYDSVYLHPNSYSCACLASGSVLRLVDAVLGAEIRNGMAIIRPPGHAAQHSLMDGYCMFNHVAVAARYAQQKHRIRRVLIVDWDVHHGQGTQFTFDQDPSVLYFSIHRYEQGRFWPHLKASNWSTTGFGQGQGYTINVPWNQVGMRDADYIAAFLHVLLPVALEFQPQLVLVAAGFDALQGDPKGEMAATPAGFAQLTHLLMGLAGGKLILSLEGGYNLRALAEGVSASLHTLLGDPCPMLESPGAPCRSAQASVSCALEALEPFWEVLVRSTETVERDNMEEDNVEESEEEGPWEPPVLPILTWPVLQSRTGLVYDQNMMNHCNLWDSHHPEVPQRILRIMCRLEELGLAGRCLTLTPRPATEAELLTCHSAEYVGHLRATEKMKTRELHRESSNFDSIYICPSTFACAQLATGAACRLVEAVLSGEVLNGAAVVRPPGHAAEQDAACGFCFFNSVAVAARHAQTISGHALRILIVDWDVHHGNGTQHMFEDDPSVLYVSLHRYDHGTFFPMGDEGASSQIGRAAGTGFTVNVAWNGPRMGDADYLAAWHRLVLPIAYEFNPELVLVSAGFDAARGDPLGGCQVSPEGYAHLTHLLMGLASGRIILILEGGYNLTSISESMAACTRSLLGDPPPLLTLPRPPLSGALASITETIQVHRRYWRSLRVMKVEDREGPSSSKLVTKKAPQPAKPRLAERMTTREKKVLEAGMGKVTSASFGEESTPGQTNSETAVVALTQDQPSEAATGGATLAQTISEAAIGGAMLGQTTSEEAVGGATPDQTTSEETVGGAILDQTTSEDAVGGATLGQTTSEEAVGGATLAQTTSEAAMEGATLDQTTSEEAPGGTELIQTPLASSTDHQTPPTSPVQGTTPQISPSTLIGSLRTLELGSESQGASESQAPGEENLLGEAAGGQDMADSMLMQGSRGLTDQAIFYAVTPLPWCPHLVAVCPIPAAGLDVTQPCGDCGTIQENWVCLSCYQVYCGRYINGHMLQHHGNSGHPLVLSYIDLSAWCYYCQAYVHHQALLDVKNIAHQNKFGEDMPHPH
[3]
  in vitro deacetylation of acetylated Hsp90 (37° C., 60 minutes; α-AcK immunoblot): immuno-purified wild type but not catalytically inactive mutant HDAC6 can efficiently deacetylate acetylated Hsp90 in vitro

From US20100292169A1, “METHODS AND COMPOSITIONS FOR REGULATING HDAC6 ACTIVITY” (Duke University, priority 2005, published 2010)
